The values below are quoted from earlier work in PMC7998273, “Zein Nanoparticles Improve the Oral Bioavailability of Curcumin in Wistar Rats” (Pharmaceutics, 2021).

On the set-up of this data set: method as in PMID 17400527. The settings on record: orally administered.

Consider `COc1cc(/C=C/C(=O)CC(=O)/C=C/c2ccc(O)c(OC)c2)ccc1O` [CC, curcumin], for which the Oral bioavailability result is recorded as “ca. 1%”.
